For data set [1], the system named is human myelogenous leukemic cells (HL-60). The data set can be described thus: Inhibition of proliferation of human myelogenous leukemic cells (HL-60), Trypan Blue staining. It is filed as cell-based. The conditions noted are these: for Surviving Cell Number: stationary culture at 37°C for 4 days, start 1 x 10^5 cells/ml, control 44.0 x 10^4; for inhibition at 5 µg/mL: Homo sapiens. The protocol: The test on the inhibition of the proliferation of human myelogenous leukemic cells was conducted by a well known method. The human myelogenous leukemic cells (HL-60) were added to an RPMI culture solution containing 10% bovine fetal serum, the number of cells in the culture solution was adjusted to 1 x 10^5 cells/ml, a solution in ethanol of the compound under test was added to give a concentration of 5µg/ml, and the mixture was subjected to stationary culture at 37°C for 4 days. As a control, a culture solution containing 0.1% of ethanol was similarly cultured. The culture solutions were stained by the Trypan Blue staining method and the surviving cell number was measured to determine the degree of inhibition relative to the control.

A short description of data set [2]: Acute toxicity by intraperitoneal administration. The note with it: mouse, in vivo, ip; intraperitoneal administration in mice. How it is done: The acute toxicity of the compounds of the present invention was >50 mg/kg by intraperitoneal administration, so that the prostaglandin D derivatives of the present invention may be considered to be sufficiently safe and suitable for medical use.

Data set [3] can be described thus: Blood pressure depression after intravenous administration to the allobarbital-anesthetized dog. In kind it is in vivo.
Setting [4] is: 96 h, HL-60, 5 µg/ml, 37°C for 4 days, relative to control (0.1% ethanol), b55 gives the same values in %, read-out: Degree of Inhibition.
Where [5] appears, read: HL-60, concentration of 5 µg/ml, read-out: inhibited the proliferation of the leukemic cells.
Setting [6] is: dosage of 10 µg/kg animal body weight.

Read-outs that look alike come from different tables or passages of the source.

A word on the LD50: it is the dose expected to kill half of the subjects tested. Low readings indicate greater toxicity, high ones lower toxicity.

As to `CCCCCC=CC=C1C(=O)C=CC1CC=CCCCC(=O)O` (stereo not shown) [(5Z,9Z,14EZ)-11-oxoprosta-5,9,12,14-tetraenoic acid], the “Surviving Cell Number” value in data set [1] (HL-60, 5 µg/ml) is given as 3 x 10^4 cells/ml. Besides, the inhibition at 5 µg/mL in data set [1] (setting [4]) and in data set [1] (setting [5]) was 93.2% in each case. Also, the LD50 in data set [2] came out at 78 mg/kg. For the same molecule, the blood pressure depression entry in data set [3] (dosage of 100 µg/kg animal body weight) is listed as “did not cause blood pressure depression”.

As for `CCCCC[C@H](O)/C=C/[C@H]1C(=O)C[C@H](O)[C@@H]1C/C=C\CCCC(=O)O` [PGD2, prostaglandin D2], in data set [1] (HL-60, 5 µg/ml), the “Surviving Cell Number” value was 19.5 x 10^4 cells/ml. In addition, the inhibition at 5 µg/mL in data set [1] (setting [4]) came to 55.6%. The inhibition at 5 µg/mL in data set [1] (setting [5]) was determined as 55.6%. Besides, in data set [3] (setting [6]), the blood pressure depression is 26 mm Hg and the “duration of blood pressure depression effect” value amounted to 6 min.
